Source: patent US20120034193A1, “TREATMENT OF NEUROTROPHIC FACTOR MEDIATED DISORDERS” (priority 2009, published 2012)

How the values were obtained:
[1] = system: rat primary cortical neurones; test: Pre-treatment against glutamate-induced damage (LDH) in cortical neurones; type: cell-based; conditions: for Neuronal survival (% of control): 24 h before and 24 h after glutamate 100 μM 10 min; for Toxicity at the plateau of activity: nanomolar concentration, cortical neurones in vitro
Protocol: Exposure of rat primary cortical neurones to glutamate increases lactate dehydrogenase (LDH) activity measured 24 h after glutamate exposure, indicating significant neuronal damage. Rat cortical neurones were cultured by modification of a method previously described (Singer, et al., Neuroscience Letters, 1996, 212, pp. 13-16). On day 10 of culture, the medium was changed to a serum-free defined medium. On day 12, the cultures were washed and placed for 24 h in fresh medium containing test compound or vehicle (DMSO, 0.25%). On day 13 neurones were exposed to glutamate (100 μM; 10 min) at 37° C. The cultures were then washed with, and placed in, fresh medium supplemented with test compound or vehicle for a further 24 h before LDH was measured. Neuronal damage was assessed by measuring LDH activity in the media at 24 h after glutamate exposure.

[2] = system: Rat dopaminergic neurones; test: Pre-treatment against MPP+-induced loss of dopaminergic neurones; type: cell-based; conditions: 30 nM, 24 h before and during MPP+ 2 μM 48 h
Protocol: Rat dopaminergic neurones were cultured as previously described (Schinelli et al., Journal of Neurochemistry, 1988, 50, pp. 1900-1907). On day 5, the cultures were washed and placed in fresh medium containing test compounds (30 nM), vehicle (DMSO, 0.25%) or a combination of BDNF (1.85 nM) and GDNF (0.17 nM) for 24 h.
Exposure of rat primary dopaminergic neurones to MPP^+ (2 μM, 24 h) causes a significant decrease in the number of dopaminergic neurones compared to the control. On day 6, MPP^+ (2 μM) was added to the cultures in the presence of test compounds, vehicle or a combination of BDNF and GDNF for a further 48 h. MPP^+ induces neuronal death, via inhibition of complex I in the mitochondria and consequent ATP depletion, resulting in the production of free radicals and induction of apoptosis. After the incubation period, the cultures were fixed with paraformaldehyde in PBS (4%). After fixation, the neurones were permeabilised with Triton ×100 (0.05%) for 30 min. The neurones were then incubated with anti-tyrosine hydroxylase (TH) at 37° C. for 2 h. The neurones were washed three times with PBS, and then incubated with goat anti mouse/Cy3 for 2 h at 37° C. The neurones were mounted and examined with the fluorescence microscopy.

[3] = system: Rat cortical neurones; test: Neuritogenesis in cortical neurones; type: cell-based; conditions: 3 nM, 24 h; for Neurones displaying neurites (%): control 39.35 ± 2.06
Protocol: Rat cortical neurones were cultured by modification of a previously described method (Singer, et al., Neuroscience Letters, 1996, 212, pp. 13-16). Cells were cultured with sarsasapogenin, smilagenin, vehicle (DMSO 0.25%), GDNF, BDNF or NGF for 24 h. For each group, 15 pictures showing neurones displaying neurites were selected at random in each field, and for each neurone the longest neurite was measured. The neurite number was measured by counting the number of neurones displaying neurites, the number of neurones not displaying neurites and the number of total neurones in each field. Six fields per well were examined.
The results are shown in Table 15 below, expressed as the number of neurones with neurites per field as a percentage of the total number of neurones per field.

[4] = system: Rat sensory neurones; test: Neuronal survival in sensory neurones; type: cell-based, Wistar rat; conditions: 0.2 nM, 2 days
Protocol: Rat sensory neurones were obtained from Wistar rat embryos on the 15th day of gestation. Cells were cultured at 37° C. in 5% CO2/95% air atmosphere. Following 2 days of culturing with sarsasapogenin, smilagenin, vehicle (DMSO, 0.25%) or NGF, sensory neurones were rinsed twice with PBS and fixed in paraformaldehyde (4%) in PBS for 30 min at 4° C. Cells were permeabilised with Triton X-100 (0.1%) and non-specific sites were saturated using foetal bovine serum. Prior to staining, cells were incubated for 2 h at room temperature with a mixture of primary antibodies: anti-neurofilament 68 and 200 in PBS containing foetal bovine serum 5%. Prior to washing, slides were demounted and the cells were washed twice with PBS for 5 min, placed in a dark room for 1 h and incubated with a secondary antibody: anti-mouse coupled with cyanine 3 (Cy3; 1/1600) and an anti-rabbit coupled with fluoroisothiocyanate (FITC; 1/200) in PBS containing foetal bovine serum (5%). Slides were washed twice with PBS for 5 min and mounted on coverslips using Mowiol, an antioxidative solution (9% w/v) in glycerol (22%) buffered with Tris/HCl ([…]; pH 8.5). Slides were left overnight at room temperature to harden and stored in light protected conditions. Slides were viewed using a DAPI/FITC/Cy3 triple filter microscope with a ×20 objective. A series of photographs per well were taken at random using a digital camera.

[5] = system: pmn mice; conditions: literature (Sagot et al. 1996); cited from earlier work

Q: Which results are given for `C[C@H]1CC[C@@]2(OC1)O[C@H]1C[C@H]3[C@@H]4CC[C@@H]5C[C@H](O)CC[C@]5(C)[C@H]4CC[C@]3(C)[C@H]1[C@@H]2C` [episarsasapogenin]?
A: Neuronal survival (% of control) ([1]; 1 nM): 84.79 ± 2.40 % of control; Neuronal survival (% of control) ([1]; 3 nM): 80.39 ± 5.18 % of control; Neuronal survival (% of control) ([1]; 10 nM): 83.80 ± 4.18 % of control; Neuronal survival (% of control) ([1]; 30 nM): 87.17 ± 2.51 % of control; Neuronal survival (% of control) ([1]; 100 nM): 86.42 ± 2.95 % of control; Toxicity at the plateau of activity [1]: without causing any toxicity; Neuronal survival (% of control) [2]: 95.01 ± 4.52 % of control

Q: What does the source list for `C[C@@H]1CC[C@@]2(OC1)O[C@H]1C[C@H]3[C@@H]4CC[C@@H]5C[C@H](O)CC[C@]5(C)[C@H]4CC[C@]3(C)[C@H]1[C@@H]2C` [epismilagenin]?
A: Neuronal survival (% of control) ([1]; 3 nM): 82.49 ± 3.93 % of control; Neuronal survival (% of control) ([1]; 10 nM): 78.57 ± 2.15 % of control; Neuronal survival (% of control) ([1]; 30 nM): 81.76 ± 2.09 % of control; Neuronal survival (% of control) ([1]; 100 nM): 78.39 ± 1.75 % of control; Neuronal survival (% of control) ([1]; 300 nM): 78.86 ± 1.80 % of control; Toxicity at the plateau of activity [1]: without causing any toxicity; Neuronal survival (% of control) [2]: 115.12 ± 4.73 % of control

Q: Which “Neurite length (% of control)” value [3] does the source give for NGF: nerve growth factor here?
A: 145.73 ± 5.13 % of control

Q: And the “Neurones displaying neurites (%)” value [3]?
A: 52.59 ± 2.43 %

Q: And the “Neuronal survival (% of control)” value [4]?
A: 151.50 ± 7.19 % of control

B1: GDNF: glial-derived neurotrophic factor (protein, UniProt P39905 78-211, looked up)
Glial cell line-derived …: SPDKQMAVLPRRERNRQAAAANPENSRGKGRRGQRGKNRGCVLTAIHLNVTDLGLGYETKEELIFRYCSGSCDAAETTYDKILKNLSRNRRLVSDKVGQACCRPIAFDDDLSFLDDNLVYHILRKHSAKRCGCI
Q: What does the source list for B1?
A: Motor neurone survival and disease course in pmn mice [5]: improved the motor neurone survival but did not slow down the disease; Neurite length (% of control) [3]: 125.30 ± 4.18 % of control; Neurones displaying neurites (%) [3]: 55.72 ± 1.98 %
